Data published in ChEMBL document CHEMBL3739322, “Novel oxime-bearing coumarin derivatives act as potent Nrf2/ARE activators in vitro and in mouse model” (Eur J Med Chem, 2015).
pEC50: −log10 of the molar value. The source made the active and inactive calls. The calls are words filed in the database; no cut-off is given here.

How the values were obtained:
[1] = target: T1, Nuclear factor erythroid 2-related factor 2 (Homo sapiens) (UniProt Q16236); assay: Activation of Nrf2 in human HSC3-ARE9 cells assessed as increase of ARE-mediated AKR1C1 protein expression after 24 hrs by Western blot analysis; type: cell-based
T1 sequence (whole entry): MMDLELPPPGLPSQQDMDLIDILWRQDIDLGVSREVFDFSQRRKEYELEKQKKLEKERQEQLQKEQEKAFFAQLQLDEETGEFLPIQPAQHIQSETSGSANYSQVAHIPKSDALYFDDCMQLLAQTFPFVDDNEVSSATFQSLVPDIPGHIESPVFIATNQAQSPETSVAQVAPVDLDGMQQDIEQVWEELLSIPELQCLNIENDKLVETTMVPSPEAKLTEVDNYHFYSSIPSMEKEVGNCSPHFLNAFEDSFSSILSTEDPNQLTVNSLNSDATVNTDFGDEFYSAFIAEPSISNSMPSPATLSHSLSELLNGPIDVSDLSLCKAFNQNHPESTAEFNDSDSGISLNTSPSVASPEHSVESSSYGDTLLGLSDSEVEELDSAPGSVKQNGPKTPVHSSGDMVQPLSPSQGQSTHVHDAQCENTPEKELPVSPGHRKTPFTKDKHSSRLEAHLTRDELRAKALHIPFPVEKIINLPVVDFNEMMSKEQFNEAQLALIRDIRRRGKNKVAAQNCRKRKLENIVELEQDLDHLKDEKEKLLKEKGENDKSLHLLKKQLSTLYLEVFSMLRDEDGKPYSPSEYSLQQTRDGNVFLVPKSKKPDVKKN

[2] = target: T1, Nuclear factor erythroid 2-related factor 2 (Homo sapiens); assay: Activation of Nrf2 in human HSC3-ARE9 cells assessed as increase of ARE-mediated luciferase expression at 50 uM after 24 hrs relative to control; type: cell-based
[3] = Cytotoxicity against human HSC3 cells after 24 hrs by MTT assay; type: cell-based; conditions: hsc-3, 24 h
[4] = target: T1, Nuclear factor erythroid 2-related factor 2 (Homo sapiens); assay: Activation of Nrf2 in human HSC3-ARE9 cells assessed as increase of ARE-mediated luciferase expression after 24 hrs; type: cell-based
[5] = Antioxidant activity assessed as DPPH radical scavenging activity; type: physicochemical
[6] = target: T1, Nuclear factor erythroid 2-related factor 2 (Homo sapiens); assay: Activation of Nrf2 in human HSC3-ARE9 cells assessed as increase of ARE-mediated luciferase expression at 50 uM after 24 hrs in presence of PKC inhibitor Ro-31-8220; type: cell-based
HSC-3 = assay: Inhibition of t-BOOH-induced oxidative stress in human HSC3 cells assessed as intracellular ROS level at 50 uM after 24 hrs by DCF fluorescence assay; type: functional, cell-based
Mus musculus [7] = assay: Induction of Nrf2-mediated cytoprotective activity in C57BL/6J mouse assessed as increase of HO-1 level in liver at 50 mg/kg, po qd for 7 days measured after 24 hrs of last dose; type: functional, organism-based
[8] = target: T1, Nuclear factor erythroid 2-related factor 2 (Homo sapiens); assay: Activation of Nrf2 in human HSC3-ARE9 cells assessed as increase of protein level in nucleus after 24 hrs by Western blot analysis; type: cell-based
[9] = target: T1, Nuclear factor erythroid 2-related factor 2 (Homo sapiens); assay: Activation of Nrf2 in human HSC3-ARE9 cells assessed as increase of ARE-mediated Prx1 mRNA expression at 50 uM after 24 hrs by RT-PCR analysis relative to control; type: cell-based
[10] = target: T1, Nuclear factor erythroid 2-related factor 2 (Homo sapiens); assay: Activation of Nrf2 in human HSC3-ARE9 cells assessed as increase of ARE-mediated GCLC protein expression after 24 hrs by Western blot analysis; type: cell-based
[11] = target: T1, Nuclear factor erythroid 2-related factor 2 (Homo sapiens); assay: Activation of Nrf2 in human HSC3-ARE9 cells assessed as increase of ARE-mediated GR mRNA expression at 50 uM after 24 hrs by RT-PCR analysis relative to control; type: cell-based
[12] = target: T1, Nuclear factor erythroid 2-related factor 2 (Homo sapiens); assay: Activation of Nrf2 in human HSC3-ARE9 cells assessed as increase of ARE-mediated GCLC mRNA expression at 50 uM after 24 hrs by RT-PCR analysis relative to control; type: cell-based
Mus musculus [13] = assay: Induction of Nrf2-mediated cytoprotective activity in C57BL/6J mouse assessed as increase of GR level in liver at 50 mg/kg, po qd for 7 days measured after 24 hrs of last dose; type: functional, organism-based
[14] = target: T1, Nuclear factor erythroid 2-related factor 2 (Homo sapiens); assay: Activation of Nrf2 in human HSC3-ARE9 cells assessed as increase of ARE-mediated ABCC3 mRNA expression at 50 uM after 24 hrs by RT-PCR analysis relative to control; type: cell-based
[15] = target: T1, Nuclear factor erythroid 2-related factor 2 (Homo sapiens); assay: Activation of Nrf2 in human HSC3-ARE9 cells assessed as increase of ARE-mediated luciferase expression at 50 uM after 24 hrs in presence of MEK inhibitor U0126; type: cell-based
[16] = target: T1, Nuclear factor erythroid 2-related factor 2 (Homo sapiens); assay: Activation of Nrf2 in human HSC3-ARE9 cells assessed as increase of ARE-mediated luciferase expression at 50 uM after 24 hrs in presence of p38 inhibitor SB203580; type: cell-based
[17] = target: T1, Nuclear factor erythroid 2-related factor 2 (Homo sapiens); assay: Activation of Nrf2 in human HSC3-ARE9 cells assessed as increase of ARE-mediated NQO1 mRNA expression at 50 uM after 24 hrs by RT-PCR analysis relative to control; type: cell-based
[18] = target: T1, Nuclear factor erythroid 2-related factor 2 (Homo sapiens); assay: Activation of Nrf2 in human HSC3-ARE9 cells assessed as increase of ARE-mediated AKR1C3 mRNA expression at 50 uM after 24 hrs by RT-PCR analysis relative to control; type: cell-based
[19] = target: T1, Nuclear factor erythroid 2-related factor 2 (Homo sapiens); assay: Increase of Nrf2 phosphorylation at ser-40 in human HSC3 cells at 50 uM after 24 hrs by Western blot analysis relative to control; type: cell-based; conditions: HSC-3
[20] = target: T1, Nuclear factor erythroid 2-related factor 2 (Homo sapiens); assay: Activation of Nrf2 in human HSC3-ARE9 cells assessed as increase of ARE-mediated AKR1C2 mRNA expression at 50 uM after 24 hrs by RT-PCR analysis relative to control; type: cell-based
[21] = target: T1, Nuclear factor erythroid 2-related factor 2 (Homo sapiens); assay: Activation of Nrf2 in human HSC3-ARE9 cells assessed as increase of ARE-mediated luciferase expression at 50 uM after 24 hrs in presence of PI3K inhibitor LY294002; type: cell-based
[22] = target: T1, Nuclear factor erythroid 2-related factor 2 (Homo sapiens); assay: Activation of Nrf2 in human HSC3-ARE9 cells assessed as increase of ARE-mediated Prx1 protein expression after 24 hrs by Western blot analysis; type: cell-based
Mus musculus [23] = assay: Induction of Nrf2-mediated cytoprotective activity in C57BL/6J mouse assessed as increase of AKR1C1 level in liver at 50 mg/kg, po qd for 7 days measured after 24 hrs of last dose; type: functional, organism-based
[24] = target: T1, Nuclear factor erythroid 2-related factor 2 (Homo sapiens); assay: Activation of Nrf2 in human HSC3-ARE9 cells assessed as increase of ARE-mediated AKR1C1 mRNA expression at 50 uM after 24 hrs by RT-PCR analysis relative to control; type: cell-based
Mus musculus [25] = assay: Toxicity in C57BL/6J mouse assessed as change in body weight at 50 mg/kg, po qd for 7 days; type: organism-based; conditions: in vivo, 168 h

Structure (SMILES): O=c1oc2ccccc2cc1OC/C(=N\O)c1ccccc1
- Activity [1]: Dose-dependent effect
- fold change (FC) [2]: 3.45
- Activity [3]: Non-toxic
- Activity [4]: Dose-dependent effect
- pEC50 [5]: < 3.40
- Activity [6]: inactive
- inhibition (HSC-3): Active
- Activity (Mus musculus [7]): Active
- Activity [8]: Dose-dependent effect
- fold change (FC) [9]: 1.6
- Activity [10]: Dose-dependent effect
- fold change (FC) [11]: 1.3
- fold change (FC) [12]: 1.6
- Activity (Mus musculus [13]): Active
- fold change (FC) [14]: 1.3
- Activity [15]: Active
- Activity [16]: Active
- fold change (FC) [17]: 1.2
- fold change (FC) [18]: 1.3
- Activity [19]: 126%
- fold change (FC) [20]: 1.4
- Activity [21]: inactive
- Activity [22]: Dose-dependent effect
- Activity (Mus musculus [23]): Active
- fold change (FC) [24]: 1.5
- Activity (Mus musculus [25]): Non-toxic
